# Assays:
# [1] = tested on: 293S cells transfected with EP2; experiment: Kidney regeneration assay: induction of BMP-7 expression (Northern blot) in EP2 293S cells; type: cell-based, human; conditions: 10^-6M, RNA at 8, 16 and 24 hours, time dependent
# Experimental: (§1) The role of a prostaglandin agonist in kidney regeneration is investigated by the ability of Prostaglandin E2 (PGE2) or a prostaglandin agonist to induce the expression of Bone Morphogenetic Protein 7 (BMP-7) in wild type 293S cells and in 293S cells transfected with EP2.
# (§2) Methods: 293S and EP2 293S cells are grown in Dulbecco's Modified Egale medium (DMEM, Gibco, BRL; Gaithersburg, Md.). One day prior to treatment with PGE2 or a prostaglandin agonist, cells are plated at a density of 1.5×10^6 cells/10 cm dish. Generally about 16 to 24 hours later the cell monolayer is washed once with OptiMEM (Gibco, BRL; Gaithersburg, Md.) followed by the addition of 10 ml OptiMEM/dish in the presence and absense of vehicle (DMSO), PGE2 (10^−6M) or a prostaglandin agonist (10^−6M). Cells are harvested and RNA is extracted at 8, 16 and 24 hours. Northern blot analysis of total RNA ([…]) is carried out by probing the blots with ^32P-labeled BMP-7 probe. The blots are normalized for RNA loading by hybridization with ^32P-labeled 18s ribosomal RNA probe. […] Given the known role of BMP-7 in kidney regeneration and the ability of an prostaglandin agonist to induce BMP-7 expression in 293S kidney cells in a time and receptor specific manner indicates a role for prostaglandin agonist in kidney regeneration.
# wild type 293S cells = experiment: Kidney regeneration assay: induction of BMP-7 expression (Northern blot) in wild type 293S cells; type: cell-based, human; conditions: parental (wild type) 293S cell line; 10^-6M; 8, 16 and 24 hours
# Experimental: as §1, §2
# [2] = tested on: ovariectomized (OVX) rat model; conditions: model for postmenopausal osteoporosis, Ke et al., Bone 23:249-255, 1998; cited from earlier work
compound,measurement,setting,value
"CCCCC[C@H](O)/C=C/[C@H]1[C@H](O)CC(=O)[C@@H]1C/C=C\CCCC(=O)O [PGE2, prostaglandin E2]",expression of Bone Morphogenetic Protein 7 (BMP-7),[1],induce the expression of BMP-7
same,expression of Bone Morphogenetic Protein 7 (BMP-7),wild type 293S cells,generally not observed
same,restoration of lost bone,[2],can restore lost bone

# From patent US7192979B2, “EP4 receptor selective agonist in the treatment of osteoporosis” (Pfizer Inc., priority 2000, dated 2007)
